{
  "source": "paper PMC8909834",
  "about": "“An Orally Bioavailable and Highly Efficacious Inhibitor of CDK9/FLT3 for the Treatment of Acute Myeloid Leukemia” (Cancers, 2022)",
  "experiment_in_all_cases": "Kinase Hotspot radiolabel assay",
  "assay_type_in_all_cases": "biochemical",
  "settings_in_all_cases": "read-out: % Residual Activity",
  "key": {"ALK3/BMPR1A": {"molecular_target": "T1, ALK3/BMPR1A (Homo sapiens, UniProt P36894)", "T1 construct": "purchased Reaction Biology Corporation (Kinase HotSpot)", "outline": "(§1)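 1 µM cpd; 369-kinase radiolabel Hotspot panel; Ki run for hits >90% inhibition.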"}, "DAPK1": {"molecular_target": "T2, DAPK1 (Homo sapiens, UniProt P53355)", "T2 construct": "purchased Reaction Biology Corporation (Kinase HotSpot)", "outline": "as §1"}, "TNK1": {"molecular_target": "T3, TNK1 (Homo sapiens, UniProt Q13470)", "T3 construct": "purchased Reaction Biology Corporation (Kinase HotSpot)", "outline": "as §1"}, "BRSK1": {"molecular_target": "T4, BRSK1 (Homo sapiens, UniProt Q8TDC3)", "T4 construct": "purchased Reaction Biology Corporation (Kinase HotSpot)", "outline": "as §1"}, "MST1/STK4": {"molecular_target": "T5, MST1/STK4 (Homo sapiens, UniProt Q13043)", "T5 construct": "purchased Reaction Biology Corporation (Kinase HotSpot)", "outline": "as §1"}, "Aurora B": {"molecular_target": "T6, Aurora B (Homo sapiens, UniProt Q96GD4)", "T6 construct": "purchased Reaction Biology Corporation (Kinase HotSpot)", "outline": "as §1"}, "ZIPK/DAPK3": {"molecular_target": "T7, ZIPK/DAPK3 (Homo sapiens, UniProt O43293)", "T7 construct": "purchased Reaction Biology Corporation (Kinase HotSpot)", "outline": "as §1"}, "CDK2/cyclin O": {"molecular_target": "T8, CDK2/cyclin O (Homo sapiens, UniProt P24941)", "T8 construct": "purchased Reaction Biology Corporation (Kinase HotSpot)", "outline": "as §1"}, "CAMK2b": {"molecular_target": "T9, CAMK2b (Homo sapiens, UniProt Q13554)", "T9 construct": "purchased Reaction Biology Corporation (Kinase HotSpot)", "outline": "as §1"}, "Haspin": {"molecular_target": "T10, Haspin (Homo sapiens, UniProt Q8TF76)", "T10 construct": "purchased Reaction Biology Corporation (Kinase HotSpot)", "outline": "as §1"}, "GRK2": {"molecular_target": "T11, GRK2 (Homo sapiens, UniProt P25098)", "T11 construct": "purchased Reaction Biology Corporation (Kinase HotSpot)", "outline": "as §1"}, "FGFR4": {"molecular_target": "T12, FGFR4 (Homo sapiens, UniProt P22455)", "T12 construct": "purchased Reaction Biology Corporation (Kinase HotSpot)", "T12 sequence (P22455 22-802)": "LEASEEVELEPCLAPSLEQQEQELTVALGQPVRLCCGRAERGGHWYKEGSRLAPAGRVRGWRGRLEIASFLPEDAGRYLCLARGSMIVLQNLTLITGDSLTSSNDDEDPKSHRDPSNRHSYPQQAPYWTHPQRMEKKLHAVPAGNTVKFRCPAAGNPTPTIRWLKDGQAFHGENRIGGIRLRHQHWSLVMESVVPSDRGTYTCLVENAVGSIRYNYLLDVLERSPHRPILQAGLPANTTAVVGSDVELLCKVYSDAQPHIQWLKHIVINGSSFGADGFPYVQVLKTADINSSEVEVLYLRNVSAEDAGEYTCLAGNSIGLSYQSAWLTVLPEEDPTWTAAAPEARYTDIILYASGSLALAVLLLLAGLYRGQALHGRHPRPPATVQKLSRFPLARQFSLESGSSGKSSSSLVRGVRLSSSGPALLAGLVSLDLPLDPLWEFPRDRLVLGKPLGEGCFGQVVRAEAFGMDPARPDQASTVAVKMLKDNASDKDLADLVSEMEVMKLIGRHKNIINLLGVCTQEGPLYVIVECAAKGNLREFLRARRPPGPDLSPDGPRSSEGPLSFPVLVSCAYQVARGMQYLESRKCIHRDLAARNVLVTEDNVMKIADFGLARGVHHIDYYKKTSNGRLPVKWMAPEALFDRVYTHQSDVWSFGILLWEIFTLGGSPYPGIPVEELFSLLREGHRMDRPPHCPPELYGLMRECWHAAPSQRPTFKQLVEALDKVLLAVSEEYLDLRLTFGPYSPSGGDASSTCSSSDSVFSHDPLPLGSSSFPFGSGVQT", "outline": "as §1"}, "FRK/PTK5": {"molecular_target": "T13, FRK/PTK5 (Homo sapiens, UniProt P42685)", "T13 construct": "purchased Reaction Biology Corporation (Kinase HotSpot)", "outline": "as §1"}, "ABL2/ARG": {"molecular_target": "T14, ABL2/ARG (Homo sapiens, UniProt P42684)", "T14 construct": "purchased Reaction Biology Corporation (Kinase HotSpot)", "outline": "as §1"}, "CLK4": {"molecular_target": "T15, CLK4 (Homo sapiens, UniProt Q9HAZ1)", "T15 construct": "purchased Reaction Biology Corporation (Kinase HotSpot)", "outline": "as §1"}, "AXL": {"molecular_target": "T16, AXL (Homo sapiens, UniProt P30530)", "T16 construct": "purchased Reaction Biology Corporation (Kinase HotSpot)", "T16 sequence (P30530 26-894)": "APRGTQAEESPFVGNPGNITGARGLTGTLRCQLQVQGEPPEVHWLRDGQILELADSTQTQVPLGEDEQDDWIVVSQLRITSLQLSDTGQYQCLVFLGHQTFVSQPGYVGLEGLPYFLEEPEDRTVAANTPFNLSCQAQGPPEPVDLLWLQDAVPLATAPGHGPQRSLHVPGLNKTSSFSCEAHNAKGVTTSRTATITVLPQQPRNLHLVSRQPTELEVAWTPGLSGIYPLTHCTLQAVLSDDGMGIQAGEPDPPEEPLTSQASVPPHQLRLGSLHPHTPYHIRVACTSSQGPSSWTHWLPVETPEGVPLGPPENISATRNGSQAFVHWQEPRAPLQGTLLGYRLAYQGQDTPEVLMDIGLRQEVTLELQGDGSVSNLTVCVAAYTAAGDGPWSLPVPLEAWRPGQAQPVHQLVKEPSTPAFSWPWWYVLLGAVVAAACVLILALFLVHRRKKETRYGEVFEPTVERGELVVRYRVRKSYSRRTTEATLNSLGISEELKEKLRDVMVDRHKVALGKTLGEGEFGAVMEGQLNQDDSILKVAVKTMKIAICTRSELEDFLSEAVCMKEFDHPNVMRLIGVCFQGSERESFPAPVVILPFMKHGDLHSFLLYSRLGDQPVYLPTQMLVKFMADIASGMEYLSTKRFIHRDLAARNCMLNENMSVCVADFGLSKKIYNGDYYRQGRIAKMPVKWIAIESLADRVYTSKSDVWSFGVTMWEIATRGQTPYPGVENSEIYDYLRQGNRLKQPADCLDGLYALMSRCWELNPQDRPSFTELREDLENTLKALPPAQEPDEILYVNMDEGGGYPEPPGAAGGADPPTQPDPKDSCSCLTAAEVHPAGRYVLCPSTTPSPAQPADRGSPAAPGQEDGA", "outline": "as §1"}, "GRK1": {"molecular_target": "T17, GRK1 (Homo sapiens, UniProt Q15835)", "T17 construct": "purchased Reaction Biology Corporation (Kinase HotSpot)", "outline": "as §1"}, "p70S6K/RPS6KB1": {"molecular_target": "T18, p70S6K/RPS6KB1 (Homo sapiens, UniProt P23443)", "T18 construct": "purchased Reaction Biology Corporation (Kinase HotSpot)", "outline": "as §1"}, "EGFR": {"molecular_target": "T19, EGFR (Homo sapiens, UniProt P00533)", "T19 construct": "purchased Reaction Biology Corporation (Kinase HotSpot)", "T19 sequence (P00533 25-1210)": "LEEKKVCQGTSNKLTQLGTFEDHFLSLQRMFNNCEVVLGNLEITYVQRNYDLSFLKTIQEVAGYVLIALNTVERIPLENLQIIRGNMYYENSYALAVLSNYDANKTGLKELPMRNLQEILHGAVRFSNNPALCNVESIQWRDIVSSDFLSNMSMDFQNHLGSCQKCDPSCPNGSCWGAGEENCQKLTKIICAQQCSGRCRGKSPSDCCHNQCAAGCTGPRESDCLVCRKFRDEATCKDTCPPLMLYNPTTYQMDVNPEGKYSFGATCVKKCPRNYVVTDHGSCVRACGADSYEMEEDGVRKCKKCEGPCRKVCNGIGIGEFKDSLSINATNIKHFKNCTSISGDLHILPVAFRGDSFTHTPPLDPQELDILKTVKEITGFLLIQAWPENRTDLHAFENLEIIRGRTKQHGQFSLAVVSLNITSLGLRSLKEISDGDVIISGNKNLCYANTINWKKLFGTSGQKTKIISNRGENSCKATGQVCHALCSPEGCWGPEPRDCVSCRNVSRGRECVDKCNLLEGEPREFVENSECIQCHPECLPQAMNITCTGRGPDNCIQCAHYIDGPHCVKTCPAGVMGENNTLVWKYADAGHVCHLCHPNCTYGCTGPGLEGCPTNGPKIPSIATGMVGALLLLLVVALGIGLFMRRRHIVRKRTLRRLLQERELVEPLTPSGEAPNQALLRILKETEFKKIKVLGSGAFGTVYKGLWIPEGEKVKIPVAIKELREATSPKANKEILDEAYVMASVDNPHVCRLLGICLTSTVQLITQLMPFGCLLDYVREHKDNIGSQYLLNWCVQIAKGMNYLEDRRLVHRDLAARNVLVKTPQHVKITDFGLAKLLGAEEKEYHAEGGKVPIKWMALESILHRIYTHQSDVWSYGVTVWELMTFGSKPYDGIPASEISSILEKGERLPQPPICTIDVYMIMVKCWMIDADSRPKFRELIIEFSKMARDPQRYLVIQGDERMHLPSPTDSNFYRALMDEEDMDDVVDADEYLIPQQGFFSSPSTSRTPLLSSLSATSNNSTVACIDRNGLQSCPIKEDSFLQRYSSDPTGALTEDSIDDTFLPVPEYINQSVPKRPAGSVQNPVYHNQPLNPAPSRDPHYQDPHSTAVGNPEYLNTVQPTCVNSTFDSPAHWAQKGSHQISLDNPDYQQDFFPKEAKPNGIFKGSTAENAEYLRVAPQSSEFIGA", "outline": "as §1"}, "CSK": {"molecular_target": "T20, CSK (Homo sapiens, UniProt P41240)", "T20 construct": "purchased Reaction Biology Corporation (Kinase HotSpot)", "outline": "as §1"}, "NEK7": {"molecular_target": "T21, NEK7 (Homo sapiens, UniProt Q8TDX7)", "T21 construct": "purchased Reaction Biology Corporation (Kinase HotSpot)", "outline": "as §1"}, "STK32B/YANK2": {"molecular_target": "T22, STK32B/YANK2 (Homo sapiens, UniProt Q9NY57)", "T22 construct": "purchased Reaction Biology Corporation (Kinase HotSpot)", "outline": "as §1"}, "SNARK/NUAK2": {"molecular_target": "T23, SNARK/NUAK2 (Homo sapiens, UniProt Q9H093)", "T23 construct": "purchased Reaction Biology Corporation (Kinase HotSpot)", "T23 sequence (Q9H093 whole entry)": "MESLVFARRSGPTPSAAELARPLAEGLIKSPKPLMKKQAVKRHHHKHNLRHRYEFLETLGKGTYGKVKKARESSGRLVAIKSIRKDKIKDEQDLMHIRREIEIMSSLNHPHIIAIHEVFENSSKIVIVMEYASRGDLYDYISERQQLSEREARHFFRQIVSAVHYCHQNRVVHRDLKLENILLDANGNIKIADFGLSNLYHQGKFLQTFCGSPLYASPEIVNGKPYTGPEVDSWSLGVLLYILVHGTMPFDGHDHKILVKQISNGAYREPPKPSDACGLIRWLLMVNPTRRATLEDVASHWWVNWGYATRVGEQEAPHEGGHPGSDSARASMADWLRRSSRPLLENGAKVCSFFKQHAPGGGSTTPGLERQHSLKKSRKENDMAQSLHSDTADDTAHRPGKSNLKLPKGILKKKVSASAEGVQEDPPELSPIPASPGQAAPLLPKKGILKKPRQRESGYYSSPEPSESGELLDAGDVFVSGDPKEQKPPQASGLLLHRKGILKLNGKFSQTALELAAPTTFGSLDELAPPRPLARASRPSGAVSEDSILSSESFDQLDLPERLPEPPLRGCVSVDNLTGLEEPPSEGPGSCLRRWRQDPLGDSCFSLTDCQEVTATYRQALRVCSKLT", "outline": "as §1"}, "GCK/MAP4K2": {"molecular_target": "T24, GCK/MAP4K2 (Homo sapiens, UniProt Q12851)", "T24 construct": "purchased Reaction Biology Corporation (Kinase HotSpot)", "T24 sequence (Q12851 whole entry)": "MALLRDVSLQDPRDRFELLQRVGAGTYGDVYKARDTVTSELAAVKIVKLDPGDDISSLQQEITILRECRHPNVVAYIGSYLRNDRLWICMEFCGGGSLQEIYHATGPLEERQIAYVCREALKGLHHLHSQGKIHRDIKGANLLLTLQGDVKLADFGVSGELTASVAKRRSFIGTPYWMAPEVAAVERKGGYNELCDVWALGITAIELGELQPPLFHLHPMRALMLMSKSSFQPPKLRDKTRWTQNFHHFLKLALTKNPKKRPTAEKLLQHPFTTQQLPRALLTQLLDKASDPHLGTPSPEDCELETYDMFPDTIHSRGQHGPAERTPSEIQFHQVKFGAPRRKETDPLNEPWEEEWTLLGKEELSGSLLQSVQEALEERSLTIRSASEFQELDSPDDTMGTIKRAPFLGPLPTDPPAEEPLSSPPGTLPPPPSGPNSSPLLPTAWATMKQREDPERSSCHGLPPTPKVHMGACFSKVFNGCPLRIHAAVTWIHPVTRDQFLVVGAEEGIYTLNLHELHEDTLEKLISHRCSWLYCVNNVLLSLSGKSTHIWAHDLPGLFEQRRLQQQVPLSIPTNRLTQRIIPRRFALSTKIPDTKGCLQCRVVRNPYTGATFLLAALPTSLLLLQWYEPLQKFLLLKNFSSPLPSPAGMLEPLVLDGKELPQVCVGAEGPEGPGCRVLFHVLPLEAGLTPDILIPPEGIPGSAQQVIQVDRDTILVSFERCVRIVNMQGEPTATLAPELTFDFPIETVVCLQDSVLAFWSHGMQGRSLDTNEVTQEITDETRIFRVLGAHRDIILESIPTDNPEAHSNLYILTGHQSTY", "outline": "as §1"}, "PKCtheta": {"molecular_target": "T25, PKCtheta (Homo sapiens, UniProt Q04759)", "T25 construct": "purchased Reaction Biology Corporation (Kinase HotSpot)", "outline": "as §1"}, "SRPK2": {"molecular_target": "T26, SRPK2 (Homo sapiens, UniProt P78362)", "T26 construct": "purchased Reaction Biology Corporation (Kinase HotSpot)", "T26 sequence (P78362 whole entry)": "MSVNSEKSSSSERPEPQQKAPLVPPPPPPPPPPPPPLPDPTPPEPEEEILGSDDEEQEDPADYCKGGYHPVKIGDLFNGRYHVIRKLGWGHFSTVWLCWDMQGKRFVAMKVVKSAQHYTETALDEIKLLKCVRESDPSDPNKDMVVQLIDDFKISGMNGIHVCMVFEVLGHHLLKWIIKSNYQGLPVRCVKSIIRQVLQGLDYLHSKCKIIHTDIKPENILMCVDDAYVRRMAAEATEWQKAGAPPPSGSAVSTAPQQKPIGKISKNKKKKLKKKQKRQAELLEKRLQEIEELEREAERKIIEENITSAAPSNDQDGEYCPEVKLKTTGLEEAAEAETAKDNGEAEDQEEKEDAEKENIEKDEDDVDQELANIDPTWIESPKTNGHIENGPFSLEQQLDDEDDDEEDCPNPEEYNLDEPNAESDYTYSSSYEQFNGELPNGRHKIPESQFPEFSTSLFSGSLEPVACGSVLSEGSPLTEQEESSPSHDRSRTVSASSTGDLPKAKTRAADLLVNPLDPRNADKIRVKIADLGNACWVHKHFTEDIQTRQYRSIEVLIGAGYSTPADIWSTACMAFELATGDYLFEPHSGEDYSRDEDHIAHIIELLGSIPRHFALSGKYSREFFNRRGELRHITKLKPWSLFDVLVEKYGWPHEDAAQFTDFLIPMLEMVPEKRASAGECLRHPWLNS", "outline": "as §1"}, "ROCK2": {"molecular_target": "T27, ROCK2 (Homo sapiens, UniProt O75116)", "T27 construct": "purchased Reaction Biology Corporation (Kinase HotSpot)", "outline": "as §1"}, "MEKK6": {"molecular_target": "T28, MEKK6 (Homo sapiens, UniProt O95382)", "T28 construct": "purchased Reaction Biology Corporation (Kinase HotSpot)", "outline": "as §1"}, "RIPK2": {"molecular_target": "T29, RIPK2 (Homo sapiens, UniProt O43353)", "T29 construct": "purchased Reaction Biology Corporation (Kinase HotSpot)", "outline": "as §1"}, "PIM3": {"molecular_target": "T30, PIM3 (Homo sapiens, UniProt Q86V86)", "T30 construct": "purchased Reaction Biology Corporation (Kinase HotSpot)", "outline": "as §1"}},
  "data": [
    {"smiles": "Cc1cnc(N[C@H]2CC[C@H](N)CC2)nc1-c1cnc2ccc(-c3ccccc3)cn12", "note": "[CDDD11-8]", "values": [
      {"measurement": "remaining activity at 1 µM", "setting": "ALK3/BMPR1A", "result": 98, "unit": "%"},
      {"measurement": "remaining activity at 1 µM", "setting": "DAPK1", "result": 96.1, "unit": "%"},
      {"measurement": "remaining activity at 1 µM", "setting": "TNK1", "result": 55.4, "unit": "%"},
      {"measurement": "remaining activity at 1 µM", "setting": "BRSK1", "result": 97.4, "unit": "%"},
      {"measurement": "remaining activity at 1 µM", "setting": "MST1/STK4", "result": 8.89, "unit": "%"},
      {"measurement": "remaining activity at 1 µM", "setting": "Aurora B", "result": 89.6, "unit": "%"},
      {"measurement": "remaining activity at 1 µM", "setting": "ZIPK/DAPK3", "result": 102, "unit": "%"},
      {"measurement": "remaining activity at 1 µM", "setting": "CDK2/cyclin O", "result": 56.8, "unit": "%"},
      {"measurement": "remaining activity at 1 µM", "setting": "CAMK2b", "result": 23.5, "unit": "%"},
      {"measurement": "remaining activity at 1 µM", "setting": "Haspin", "result": 65.1, "unit": "%"},
      {"measurement": "remaining activity at 1 µM", "setting": "GRK2", "result": 95.9, "unit": "%"},
      {"measurement": "remaining activity at 1 µM", "setting": "FGFR4", "result": 104, "unit": "%"},
      {"measurement": "remaining activity at 1 µM", "setting": "FRK/PTK5", "result": 97.1, "unit": "%"},
      {"measurement": "remaining activity at 1 µM", "setting": "ABL2/ARG", "result": 67.5, "unit": "%"},
      {"measurement": "remaining activity at 1 µM", "setting": "CLK4", "result": 26.1, "unit": "%"},
      {"measurement": "remaining activity at 1 µM", "setting": "AXL", "result": 44.4, "unit": "%"},
      {"measurement": "remaining activity at 1 µM", "setting": "GRK1", "result": 65, "unit": "%"},
      {"measurement": "remaining activity at 1 µM", "setting": "p70S6K/RPS6KB1", "result": 94.5, "unit": "%"},
      {"measurement": "remaining activity at 1 µM", "setting": "EGFR", "result": 82.2, "unit": "%"},
      {"measurement": "remaining activity at 1 µM", "setting": "CSK", "result": 91.2, "unit": "%"},
      {"measurement": "remaining activity at 1 µM", "setting": "NEK7", "result": 102, "unit": "%"},
      {"measurement": "remaining activity at 1 µM", "setting": "STK32B/YANK2", "result": 96.7, "unit": "%"},
      {"measurement": "remaining activity at 1 µM", "setting": "SNARK/NUAK2", "result": 45.2, "unit": "%"},
      {"measurement": "remaining activity at 1 µM", "setting": "GCK/MAP4K2", "result": 24.8, "unit": "%"},
      {"measurement": "remaining activity at 1 µM", "setting": "PKCtheta", "result": 46.2, "unit": "%"},
      {"measurement": "remaining activity at 1 µM", "setting": "SRPK2", "result": 95.3, "unit": "%"},
      {"measurement": "remaining activity at 1 µM", "setting": "ROCK2", "result": 88.9, "unit": "%"},
      {"measurement": "remaining activity at 1 µM", "setting": "MEKK6", "result": 104, "unit": "%"},
      {"measurement": "remaining activity at 1 µM", "setting": "RIPK2", "result": 78.1, "unit": "%"},
      {"measurement": "remaining activity at 1 µM", "setting": "PIM3", "result": 72.6, "unit": "%"}
    ]}
  ]
}
